Common to all, as to type: ADME
Data set [1] deals with Glutathione S-transferase P (Homo sapiens, UniProt P09211). Briefly: Substrates for human cytosolic glutathione transferase GSTP1.
Another data set has as its target Cytochrome P450 2C9 (Homo sapiens, UniProt P11712). Briefly: Clinically relevant inhibitors of human liver microsomal P450 enzymes, isoform CYP2C9. The conditions noted are these: microsomes. A general note: Liver microsomes are a subcellular fraction often used to study metabolism.
For data set [2], the target named is T1, UDP-glucuronosyltransferase 1A3 (Homo sapiens, UniProt P35503).
T1 sequence (P35503 whole entry): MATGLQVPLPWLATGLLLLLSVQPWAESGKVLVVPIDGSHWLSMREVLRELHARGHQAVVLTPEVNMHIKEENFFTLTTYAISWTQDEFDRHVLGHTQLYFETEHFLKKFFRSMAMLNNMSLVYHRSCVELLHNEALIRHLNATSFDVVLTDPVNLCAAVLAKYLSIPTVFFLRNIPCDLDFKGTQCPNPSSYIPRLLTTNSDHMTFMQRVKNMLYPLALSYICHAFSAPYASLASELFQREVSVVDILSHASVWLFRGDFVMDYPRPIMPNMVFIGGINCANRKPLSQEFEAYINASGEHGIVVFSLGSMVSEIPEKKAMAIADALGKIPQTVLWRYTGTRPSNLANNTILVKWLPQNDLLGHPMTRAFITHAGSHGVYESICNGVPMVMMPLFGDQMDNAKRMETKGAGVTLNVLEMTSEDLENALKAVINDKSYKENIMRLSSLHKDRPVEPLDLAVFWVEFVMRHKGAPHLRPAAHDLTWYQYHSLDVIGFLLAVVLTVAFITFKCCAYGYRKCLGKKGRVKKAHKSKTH
The data set can be described thus: Substrate of human UDP-glucuronosyltransferase UGT1A3.

The target in data set [3] is T2, UDP-glucuronosyltransferase 1A9 (Homo sapiens, UniProt O60656).
T2 sequence (O60656 whole entry): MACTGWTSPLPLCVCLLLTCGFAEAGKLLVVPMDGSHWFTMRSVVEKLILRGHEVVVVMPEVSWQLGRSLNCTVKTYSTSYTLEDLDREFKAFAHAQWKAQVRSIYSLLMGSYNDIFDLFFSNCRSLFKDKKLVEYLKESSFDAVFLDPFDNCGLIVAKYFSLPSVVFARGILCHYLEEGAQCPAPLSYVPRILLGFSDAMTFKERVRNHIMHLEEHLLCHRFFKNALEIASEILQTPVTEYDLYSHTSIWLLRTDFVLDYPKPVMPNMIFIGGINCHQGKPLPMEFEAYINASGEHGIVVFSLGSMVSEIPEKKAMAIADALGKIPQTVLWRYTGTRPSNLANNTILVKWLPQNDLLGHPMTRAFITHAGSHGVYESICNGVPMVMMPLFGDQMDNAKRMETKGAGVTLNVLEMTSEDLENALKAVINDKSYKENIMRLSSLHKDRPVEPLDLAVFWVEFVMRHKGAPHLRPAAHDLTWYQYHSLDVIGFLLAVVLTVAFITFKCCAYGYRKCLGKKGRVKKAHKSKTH
Briefly: Substrate of human UDP-glucuronosyltransferase UGT1A9.

In the next data set the target is Sulfotransferase 1C4 (Homo sapiens, UniProt O75897). The data set can be described thus: Major substrate of human cytosolic sulfotransferase SULT1C4.
Chain of Sulfotransferase 1C4 (O75897 whole entry): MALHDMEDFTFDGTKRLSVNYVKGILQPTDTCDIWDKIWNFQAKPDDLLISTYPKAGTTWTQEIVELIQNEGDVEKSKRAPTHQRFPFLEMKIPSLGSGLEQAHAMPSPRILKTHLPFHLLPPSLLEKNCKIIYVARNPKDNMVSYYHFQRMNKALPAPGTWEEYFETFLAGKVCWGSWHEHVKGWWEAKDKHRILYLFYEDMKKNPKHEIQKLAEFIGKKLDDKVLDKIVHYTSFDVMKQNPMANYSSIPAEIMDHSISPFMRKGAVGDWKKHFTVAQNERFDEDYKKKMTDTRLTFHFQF
For data set [4], the target named is T3, UDP-glucuronosyltransferase 2B7 (Homo sapiens, UniProt P16662).
T3 sequence (P16662 whole entry): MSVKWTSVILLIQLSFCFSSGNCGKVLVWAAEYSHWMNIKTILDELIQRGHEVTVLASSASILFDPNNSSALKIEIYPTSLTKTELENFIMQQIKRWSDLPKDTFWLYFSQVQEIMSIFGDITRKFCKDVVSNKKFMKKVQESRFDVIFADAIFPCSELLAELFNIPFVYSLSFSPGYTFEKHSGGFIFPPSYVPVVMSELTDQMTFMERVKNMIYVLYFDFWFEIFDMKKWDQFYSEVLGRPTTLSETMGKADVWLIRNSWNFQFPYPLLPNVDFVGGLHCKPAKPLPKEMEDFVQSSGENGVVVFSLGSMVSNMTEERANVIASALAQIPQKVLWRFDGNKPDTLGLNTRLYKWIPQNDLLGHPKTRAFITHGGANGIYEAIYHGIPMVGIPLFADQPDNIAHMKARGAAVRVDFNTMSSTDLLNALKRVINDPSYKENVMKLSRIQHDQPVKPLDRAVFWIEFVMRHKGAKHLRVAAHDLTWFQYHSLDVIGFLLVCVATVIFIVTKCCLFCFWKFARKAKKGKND
The data set can be described thus: Substrate of human UDP-glucuronosyltransferase UGT2B7.

Data set [5] deals with T4, Glutathione S-transferase A1 (Homo sapiens, UniProt P08263).
T4 sequence (P08263 whole entry): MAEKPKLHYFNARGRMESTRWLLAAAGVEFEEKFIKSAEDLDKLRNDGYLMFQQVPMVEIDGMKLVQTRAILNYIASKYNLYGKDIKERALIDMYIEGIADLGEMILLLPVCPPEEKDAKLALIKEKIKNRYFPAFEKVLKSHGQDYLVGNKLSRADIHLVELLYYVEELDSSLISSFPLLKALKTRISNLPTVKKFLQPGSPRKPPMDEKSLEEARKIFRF
The data set can be described thus: Substrates for human cytosolic glutathione transferase GSTA1.

Data set [6] concerns the target T5, UDP-glucuronosyltransferase 1A6 (Homo sapiens, UniProt P19224).
T5 sequence (P19224 whole entry): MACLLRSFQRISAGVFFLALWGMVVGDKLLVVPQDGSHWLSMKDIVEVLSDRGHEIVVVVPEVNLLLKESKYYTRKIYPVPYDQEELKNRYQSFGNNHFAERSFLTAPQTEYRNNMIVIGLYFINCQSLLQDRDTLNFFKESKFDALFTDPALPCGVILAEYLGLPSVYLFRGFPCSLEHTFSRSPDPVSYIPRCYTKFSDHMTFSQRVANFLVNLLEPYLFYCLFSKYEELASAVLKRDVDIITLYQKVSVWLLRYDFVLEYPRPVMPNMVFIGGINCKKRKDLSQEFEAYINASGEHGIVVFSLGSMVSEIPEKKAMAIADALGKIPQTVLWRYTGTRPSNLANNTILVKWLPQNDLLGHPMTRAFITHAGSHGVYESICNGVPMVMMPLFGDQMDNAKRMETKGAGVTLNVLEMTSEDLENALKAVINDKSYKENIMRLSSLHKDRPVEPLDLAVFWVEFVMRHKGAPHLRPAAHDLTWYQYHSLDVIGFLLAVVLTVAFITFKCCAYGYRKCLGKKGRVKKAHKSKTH
Briefly: Substrate of human UDP-glucuronosyltransferase UGT1A6.

Data set [7] has as its target T6, UDP-glucuronosyltransferase 1A1 (Homo sapiens, UniProt P22309).
T6 sequence (P22309 whole entry): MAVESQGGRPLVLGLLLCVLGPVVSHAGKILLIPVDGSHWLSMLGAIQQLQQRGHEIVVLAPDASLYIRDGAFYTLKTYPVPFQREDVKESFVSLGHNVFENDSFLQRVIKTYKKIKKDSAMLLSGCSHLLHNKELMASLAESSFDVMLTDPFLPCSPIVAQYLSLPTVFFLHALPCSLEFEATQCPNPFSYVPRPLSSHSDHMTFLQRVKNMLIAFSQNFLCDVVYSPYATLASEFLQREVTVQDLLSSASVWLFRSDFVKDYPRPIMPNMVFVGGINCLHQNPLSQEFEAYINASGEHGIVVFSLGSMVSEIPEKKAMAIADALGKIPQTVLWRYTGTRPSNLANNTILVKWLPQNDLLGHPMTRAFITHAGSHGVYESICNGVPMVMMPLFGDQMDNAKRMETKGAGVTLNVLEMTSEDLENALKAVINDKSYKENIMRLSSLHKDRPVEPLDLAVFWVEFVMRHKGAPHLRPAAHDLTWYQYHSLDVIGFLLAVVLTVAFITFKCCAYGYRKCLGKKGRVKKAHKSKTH
Briefly: Substrate of human UDP-glucuronosyltransferase UGT1A1.

For another data set, the target named is Sulfotransferase 1A1 (Homo sapiens, UniProt P50225). Briefly: Major substrate of human cytosolic sulfotransferase SULT1A1.
Chain of Sulfotransferase 1A1 (P50225 whole entry): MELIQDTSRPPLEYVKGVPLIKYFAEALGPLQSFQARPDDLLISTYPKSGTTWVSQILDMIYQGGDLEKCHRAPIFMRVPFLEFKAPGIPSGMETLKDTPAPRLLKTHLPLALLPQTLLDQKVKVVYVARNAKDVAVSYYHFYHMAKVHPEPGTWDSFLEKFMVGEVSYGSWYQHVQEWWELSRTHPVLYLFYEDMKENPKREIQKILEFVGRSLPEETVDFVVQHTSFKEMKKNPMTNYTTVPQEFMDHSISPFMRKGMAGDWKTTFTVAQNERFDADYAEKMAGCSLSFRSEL
A further data set has as its target T7, Sulfotransferase 1E1 (Homo sapiens, UniProt P49888).
T7 sequence (P49888 whole entry): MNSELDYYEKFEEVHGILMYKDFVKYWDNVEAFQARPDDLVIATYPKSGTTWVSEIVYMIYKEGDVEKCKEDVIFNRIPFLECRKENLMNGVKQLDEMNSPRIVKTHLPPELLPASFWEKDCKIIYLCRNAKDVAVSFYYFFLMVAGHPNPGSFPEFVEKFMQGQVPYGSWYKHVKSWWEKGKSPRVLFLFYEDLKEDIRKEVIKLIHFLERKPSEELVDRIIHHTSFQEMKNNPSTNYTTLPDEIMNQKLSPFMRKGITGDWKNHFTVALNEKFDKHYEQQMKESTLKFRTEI
Briefly: Major substrate of human cytosolic sulfotransferase SULT1E1.

The target of a further data set is T8, Cytochrome P450 1A2 (Homo sapiens, UniProt P05177).
T8 sequence (P05177 whole entry): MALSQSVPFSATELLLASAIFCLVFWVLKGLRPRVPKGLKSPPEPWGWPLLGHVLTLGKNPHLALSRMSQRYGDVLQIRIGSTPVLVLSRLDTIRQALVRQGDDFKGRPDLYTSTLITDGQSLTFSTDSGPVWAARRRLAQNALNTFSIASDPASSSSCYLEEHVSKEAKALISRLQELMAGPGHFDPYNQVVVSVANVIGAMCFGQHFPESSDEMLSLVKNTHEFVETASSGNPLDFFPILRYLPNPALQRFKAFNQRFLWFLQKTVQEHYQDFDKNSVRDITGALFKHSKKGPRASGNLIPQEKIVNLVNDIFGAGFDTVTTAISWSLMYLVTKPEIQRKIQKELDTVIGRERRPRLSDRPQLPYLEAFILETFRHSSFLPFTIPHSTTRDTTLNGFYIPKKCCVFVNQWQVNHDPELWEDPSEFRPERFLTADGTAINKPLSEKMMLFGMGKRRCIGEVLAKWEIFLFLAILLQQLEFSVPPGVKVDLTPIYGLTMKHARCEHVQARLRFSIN
Briefly: Clinically relevant substrates of human liver microsomal P450 enzymes, isoform CYP1A2. The conditions noted are these: microsomes.

The structures appear in SMILES notation.

Chain of Glutathione S-transferase P (P09211 whole entry, canonical isoform): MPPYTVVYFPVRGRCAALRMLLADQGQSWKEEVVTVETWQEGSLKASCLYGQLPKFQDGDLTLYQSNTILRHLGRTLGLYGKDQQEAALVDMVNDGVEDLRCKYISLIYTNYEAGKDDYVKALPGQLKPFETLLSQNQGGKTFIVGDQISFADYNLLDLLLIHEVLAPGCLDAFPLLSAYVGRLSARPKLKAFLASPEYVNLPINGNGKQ
Chain of Cytochrome P450 2C9 (P11712 whole entry, canonical isoform): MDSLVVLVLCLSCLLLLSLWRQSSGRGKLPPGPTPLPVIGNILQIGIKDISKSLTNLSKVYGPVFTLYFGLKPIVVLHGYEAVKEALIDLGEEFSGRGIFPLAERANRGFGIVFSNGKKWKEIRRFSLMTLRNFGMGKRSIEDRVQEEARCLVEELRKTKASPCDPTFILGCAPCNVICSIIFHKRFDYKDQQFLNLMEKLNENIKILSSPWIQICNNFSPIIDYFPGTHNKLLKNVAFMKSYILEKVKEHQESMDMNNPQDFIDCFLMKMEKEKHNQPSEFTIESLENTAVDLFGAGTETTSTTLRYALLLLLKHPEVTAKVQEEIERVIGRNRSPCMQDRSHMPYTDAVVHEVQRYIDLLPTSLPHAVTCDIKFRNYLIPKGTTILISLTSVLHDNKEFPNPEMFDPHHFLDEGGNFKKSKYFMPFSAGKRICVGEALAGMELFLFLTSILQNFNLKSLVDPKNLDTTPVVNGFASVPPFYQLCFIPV

For the molecule `S=P(N1CC1)(N1CC1)N1CC1` [THIOTEPA], in data set [1], the Activity result is “Substrate”.
Turning to `C=CC=O` [ACROLEIN], the Activity result in data set [1] was “Substrate”.
Consider `CCCCCOC(=O)Nc1nc(=O)n([C@@H]2O[C@H](C)[C@@H](O)[C@H]2O)cc1F` [CAPECITABINE], for which the Activity entry on Cytochrome P450 2C9 is listed as “Inhibitor”.
For the molecule `COc1ccc2cc([C@H](C)C(=O)O)ccc2c1` [NAPROXEN], the Activity result in [2] and in [3] was “Substrate” in each case.
As for `CC(C)(c1ccc(O)cc1)c1ccc(O)cc1` [BISPHENOL A], the Activity result at Sulfotransferase 1C4 was “Substrate”.
`CC(C(=O)O)c1cccc(C(=O)c2ccccc2)c1` (stereo not drawn) [KETOPROFEN]: the Activity entry in data set [4], in data set [2] and in data set [3] was “Substrate” each time.
Consider `O=C(O)CCCc1ccc(N(CCCl)CCCl)cc1` [CHLORAMBUCIL], for which the Activity entry in data set [5] and in data set [1] was “Substrate” throughout.
On to `CCCCCCCCCc1ccc(O)cc1` [4-NONYLPHENOL], for which the Activity result at Sulfotransferase 1C4 is on record as “Substrate”.
For the molecule `C[C@]12COC(=O)C[C@@H]1CC[C@@H]1[C@@H]2CC[C@@]2(C)[C@H]1CC[C@]2(C)O` [OXANDROLONE], the Activity result on Cytochrome P450 2C9 is “Inhibitor”.
In the case of `OC(Cn1cncn1)(Cn1cncn1)c1ccc(F)cc1F` [FLUCONAZOLE], the Activity result at Cytochrome P450 2C9 is given as “Inhibitor”.
Take `O=C1[C@H](CC[C@H](O)c2ccc(F)cc2)[C@@H](c2ccc(O)cc2)N1c1ccc(F)cc1` [EZETIMIBE]: the Activity entry in data set [2] is recorded as “Substrate”.
Turning to `Cc1cc(=O)oc2cc(O)ccc12` [HYMECROMONE], the Activity entry in [6] is given as “Substrate”.
Take `Nc1ccc(S(=O)(=O)Nc2ccnn2-c2ccccc2)cc1` [SULFAPHENAZOLE]: the Activity result at Cytochrome P450 2C9 is listed as “Inhibitor”.
Regarding `CC(C(=O)O)c1cccc(Oc2ccccc2)c1` (stereo not drawn) [FENOPROFEN], the Activity result in [2] and in data set [3] was “Substrate” throughout.
With `C=CC1=C(C)/C(=C/c2[nH]c(Cc3[nH]c(/C=C4\NC(=O)C(C)=C4C=C)c(C)c3CCC(=O)O)c(CCC(=O)O)c2C)NC1=O` [BILIRUBIN], in data set [7], the Activity result is recorded as “Substrate”.
Regarding `CC(=O)Nc1ccc(O)cc1` [ACETAMINOPHEN], the Activity entry (in data set [6]; in data set [7]; at Sulfotransferase 1A1; in data set [3]) was “Substrate” in each case.
As to `NCCc1c[nH]c2ccc(O)cc12` [SEROTONIN], in data set [6], the Activity entry is reported as “Substrate”.
With `C[C@]12CC[C@@H]3c4ccc(O)cc4CC[C@H]3[C@@H]1CC[C@@H]2O[C@@H]1O[C@H](C(=O)O)[C@@H](O)[C@H](O)[C@H]1O` [ESTRADIOL 17B GLUCURONIDE], the Activity result in data set [7] is “Substrate”.
Regarding `CC/C(=C(/CC)c1ccc(O)cc1)c1ccc(O)cc1` [DIETHYLSTILBESTROL], the Activity entry on Sulfotransferase 1E1 and on Sulfotransferase 1C4 was “Substrate” in each case.
Take `O=C(O)COc1ccc(C(=O)c2cccs2)c(Cl)c1Cl`: the Activity result on Cytochrome P450 2C9 is on record as “Inhibitor”.
Take `CCOc1ccc2nc3ccc(=O)cc-3oc2c1` [ETHOXYRESORUFIN]: the Activity result at Cytochrome P450 1A2 was “Substrate”.
As for `C#C[C@]1(O)CC[C@H]2[C@@H]3CCc4cc(O)ccc4[C@H]3CC[C@@]21C` [ETHINYL ESTRADIOL], the Activity entry (in data set [7]; at Sulfotransferase 1E1) was “Substrate” throughout.
Consider `CN1CCC(=C2c3ccccc3CC(=O)c3sccc32)CC1` [KETOTIFEN], for which the Activity entry in data set [2] is “Substrate”.

For the origin of these results see ChEMBL document CHEMBL1743201, “Casarett and Doull's Toxicology The Basic Science of Poisons, 7th edition” (2008).
